Data published in US20040072770A1, “Methods for specifically inhibiting histone deacetylase-7 and 8” (priority 2002, published 2004).

Legend:
MDAmb231 cells [1] = assay: Inhibition of agar colony formation, MDAmb231; assay type: cell-based, human; settings: 50 nM oligos for 48 hours, vs cells treated with lipofectin
T24 cells [2] = assay: Apoptosis (Cell Death Detection ELISA), T24; assay type: cell-based, human; settings: 50 nM, 48 hours, over mismatch control
Protocol: (§1) For all ex vivo oligo treatment, human A549 human […] carcinoma cells were seeded in 10 cm tissue culture dishes one day prior to oligonucleotide treatment. The cell lines were obtained from the American Type Culture Collection (ATCC) (Manassas, Va.) and were grown under the recommended culture conditions. Before the addition of the oligonucleotides, cells were washed with PBS (phosphate buffered saline). Next, lipofectin transfection reagent (GIBCO BRL Mississauga, Ontario, Calif.), at a concentration of 6.25 μg/ ml, was added to serum free OPTIMEM medium (GIBCO BRL, Rockville, Md.), which was then added to the cells. The oligonucleotides were added directly to the cells (i.e., one oligonucleotide per plate of cells). Mismatched oligonucleotides were used as controls. The same concentration of oligonucleotide (e.g., 50 nM) was used per plate of cells for each oligonucleotide tested.
(§2) In order to determine the effect of HDAC ODNs on cell growth inhibition and cell death through apoptosis, A549, T24, DuI45, HCT116 cells (ATCC, Manassas, Va.), or HMEC cells (BioWhittaker, Walkersville, Md.) were treated with HDAC ODNs as previously described.
(§3) For the apoptosis study, cells were analyzed using the Cell Death Detection ELISA^Plus kit (Roche Diagnostic GmBH, Mannheim, Germany) according to the manufacturer's directions. Typically, 10,000 cells were plated in 96-well tissue culture dishes for 2 hours before harvest and lysis. Each sample was analyzed in duplicate. ELISA reading was done using a MR700 plate reader (DYNEX Technology, Ashford, Middlesex, England) at 410 nm. The reference was set at 490 nm.

HCT116 cells = assay: Apoptosis (Cell Death Detection ELISA), HCT116; assay type: cell-based, human; settings: 50 nM, 48 hours, over mismatch control
Protocol: as §1, with “tested. […]” for “tested.”
as §3, with “Typically, 10,000 cells were plated in 96-well tissue culture dishes for 2 hours before harvest and lysis.” left out, “The reference was set at 490 nm.” left out

MDAmb231 cells [3] = assay: Growth inhibition by antisense oligos, MDAmb231; assay type: cell-based, human; settings: 50 nM, 48 hour, vs cells treated with lipofectin
Protocol: [The procedure below names another cell line; the source lists this cell line under the same test.] as §1, with “tested. […]” for “tested.”
(§4) For the cell growth inhibition analysis, human cancer or normal cells were treated with 50 nM of paired AS or MM oligos directed against human HDAC-1, HDAC-7 or HDAC-8for up to 96 hours. Cell numbers were counted every day by trypan blue exclusion. Percentage of inhibition was calculated as (100 - AS cell numbers/control cell numbers)%.

H446 cells = assay: Growth inhibition by antisense oligos, H446; assay type: cell-based, human; settings: 75 nM treatment for 2 days, vs cells treated with lipofectin
A549 cells [4] = assay: Inhibition of agar colony formation, A549; assay type: cell-based, human; settings: 50 nM oligos for 48 hours, vs cells treated with lipofectin
MCF-7 cells [5] = assay: Growth inhibition by antisense oligos, MCF-7; assay type: cell-based, human; settings: 75 nM treatment for 2 days, vs cells treated with lipofectin
Protocol: [The procedure below names another cell line; the source lists this cell line under the same test.] as §1, with “tested. […]” for “tested.”
as §4

human HDAC-1 RNA = assay: HDAC-1 RNA expression screen in T24 cells, Northern blot; assay type: cell-based; settings: 100 nM, 24 hours
Protocol: To identify antisense oligodeoxynucleotide (ODN) capable of inhibiting HDAC-1 expression in human cancer cells, eleven phosphorothioate ODNs containing sequences complementary to the 5′ or 3′ UTR of the human HDAC-1 gene (GenBank Accession No. U50079) were initially screened in T24 cells at 100 nM. Cells were harvested after 24 hours of treatment, and HDAC-1 RNA expression was analyzed by Northern blot analysis. […] HDAC-1 MM oligo was created as a control; compared to the antisense oligo, it has a 6-base mismatch.

A549 cells [6] = assay: Apoptosis (Cell Death Detection ELISA), A549; assay type: cell-based, human; settings: 50 nM, 48 hours, over mismatch control
Protocol: as §1, §2, §3
[…] Similarly, A549 cells were treated with 20 nM of HDAC1 AS in combination with 20 nM of each of AS inhibitors against human HDAC2 to HDAC8. After 48 hour treatment, A549 cells were harvested and analyzed for apoptosis by ELISA as described previously. Apoptosis of A549 cells by AS inhibition was compared to that of cells treated with 1 uM TSA for 16 hours. […] The control oligo UMM had no effect on induction of apoptosis.

MDAmb231 cells [7] = assay: Apoptosis (Cell Death Detection ELISA), MDAmb231; assay type: cell-based, human; settings: 50 nM, 48 hours, over mismatch control
Du145 cells = assay: Growth inhibition by antisense oligos, Du145; assay type: cell-based, human; settings: 50 nM, 48 hour, vs cells treated with lipofectin
Protocol: as §1, §2, §4

A549 cells [8] = assay: Growth inhibition by antisense oligos, A549; assay type: cell-based, human; settings: 50 nM, 48 hour, vs cells treated with lipofectin
Protocol: as §1, §2, §4

MCF-7 cells [9] = assay: Apoptosis (Cell Death Detection ELISA), MCF-7; assay type: cell-based, human; settings: 50 nM, 48 hours, over mismatch control
T24 cells [10] = assay: Growth inhibition by antisense oligos, T24; assay type: cell-based, human; settings: 50 nM, 48 hour, vs cells treated with lipofectin
Protocol: as §1, with “tested. […]” for “tested.”
as §4

Substance: 5′-GAAACGTGAGGGACTCAGCA-3′ (chemistry not given here) [HD1 AS1]
- inhibition of agar colony formation MDAmb 231 (MDAmb231 cells [1]): + (“+” means >35% inhibition of agar colony formation of cells treated with 50 nM oligos for 48 hours compared to that of cells treated with lipofectin)
- Apoptosis T24 (T24 cells [2]): + (“+” means the induction of apoptosis at least 2 fold over mismatch control (50 nM, 48 hours))
- Apoptosis HCT 116 (HCT116 cells): + (“+” means the induction of apoptosis at least 2 fold over mismatch control (50 nM, 48 hours))
- Growth Inhibition MDAmb 231 (MDAmb231 cells [3]): + (“+” means >35% inhibition of cell growth by antisense oligos (50 nM, 48 hour) compared to that of cells treated with lipofectin)
- Growth Inhibition H446 (H446 cells): + (“+” means >35% inhibition of cell growth by antisense oligos (50 nM, 48 hour) compared to that of cells treated with lipofectin)
- inhibition of agar colony formation A549 (A549 cells [4]): + (“+” means >35% inhibition of agar colony formation of cells treated with 50 nM oligos for 48 hours compared to that of cells treated with lipofectin)
- Growth Inhibition MCF-7 (MCF-7 cells [5]): + (“+” means >35% inhibition of cell growth by antisense oligos (50 nM, 48 hour) compared to that of cells treated with lipofectin)
- HDAC-1 RNA expression, screen (human HDAC-1 RNA): antisense activity to human HDAC-1
- Apoptosis A549 (A549 cells [6]): + (“+” means the induction of apoptosis at least 2 fold over mismatch control (50 nM, 48 hours))
- Apoptosis MDAmb 231 (MDAmb231 cells [7]): + (“+” means the induction of apoptosis at least 2 fold over mismatch control (50 nM, 48 hours))
- Growth Inhibition Du145 (Du145 cells): + (“+” means >35% inhibition of cell growth by antisense oligos (50 nM, 48 hour) compared to that of cells treated with lipofectin)
- Growth Inhibition A549 (A549 cells [8]): + (“+” means >35% inhibition of cell growth by antisense oligos (50 nM, 48 hour) compared to that of cells treated with lipofectin)
- Apoptosis MCF-7 (MCF-7 cells [9]): + (“+” means the induction of apoptosis at least 2 fold over mismatch control (50 nM, 48 hours))
- Growth Inhibition T24 (T24 cells [10]): + (“+” means >35% inhibition of cell growth by antisense oligos (50 nM, 48 hour) compared to that of cells treated with lipofectin)
